US11141406B2, “Pharmaceutical compounds” (REVIRAL LIMITED, priority 2017, dated 2021)

Legend:
[1] = Liver microsomal stability, rat; type: in vitro ADME; settings: pooled liver microsomes, pH 7.4, 3 μM compound, 0.5 mg/mL protein, read-out: Liver Microsomal Stability t1/2
Description: (§1) Microsomal incubation: Experimental Procedure Pooled liver microsomes are purchased from a reputable commercial supplier and stored at −80° C. prior to use. Microsomes (final protein concentration 0.5 mg/mL), 0.1 M phosphate buffer pH 7.4 and test compound (final substrate concentration 3 μM, final DMSO concentration 0.25%) are pre-incubated at 37° C. prior to the addition of NADPH (final concentration 1 mM) to initiate the reaction. The final incubation volume is […]. A control incubation is included for each compound tested where 0.1 M phosphate buffer pH 7.4 is added instead of NADPH (minus NADPH). Two control compounds are included with each species. All incubations are performed singularly for each test compound. Each compound is incubated for 0, 5, 15, 30 and 45 min. The control (minus NADPH) is incubated for 45 min only. The reactions are stopped by transferring 20 μL of incubate to 60 μL MeOH at the appropriate time points. The termination plates are centrifuged at 2,500 rpm for 20 min at 4° C. to precipitate the protein. Following protein precipitation, the sample supernatants are combined in cassettes of up to 4 compounds, internal standard is added and samples analysed by LC-MS/MS. From a plot of In peak area ratio (compound peak area/internal standard peak area) against time, the gradient of the line is determined. Subsequently, half-life and intrinsic clearance are calculated.

[2] = Liver microsomal stability, human; type: in vitro ADME; settings: pooled liver microsomes, pH 7.4, 3 μM compound, 0.5 mg/mL protein, read-out: Liver Microsomal Stability t1/2
Description: as §1

[3] = test system: RSV fusion (HEK293T cells transfected with pCDNA3.1_A2_F); test: RSV fusion assay; type: cell-based; settings: human respiratory syncytial virus, HEK-293T, read-out: RSV Fusion Assay (n ≥ 2) IC50
Description: HEK293T ((ECACC 12022001) cells were cultured in T75 culture flasks in Dulbecco's medium (DMEM) containing 10% Foetal Bovine serum (FBS), 50 units per mL Penicillin and 50 μg/mL Streptomycin and warmed to 37° C. prior to use. The cells were passaged by first washing briefly with 5 mL Phosphate buffered saline (PBS), followed by addition of 2 mL of Trypsin Ethylenediaminetetraacetic acid (EDTA) to detach the cells. Once cells had detached from the flask, 8 mL media was then added to and the cells dispersed via pipetting against the bottom of the flask.
The cells were counted and diluted to 3×10^5 cells/mL in fresh media. Two T75 flasks were each seeded with 15.6 mL diluted cells, cells were also subcultured at a ratio of between 1:2 and 1:10, to continue the stock. The flasks were then incubated for 24 h at 37° C. and 5% CO2.
The plasmid DNA (for pFR-Luc and pcDNA3.1_Gal4/NFKB) to be transfected into the HEK 293T cells was first prepared in serum free media (Opti-MEM, Invitrogen), containing the transfection reagent FuGENE® 6 (Promega). Serum free media was placed in a 1.5 mL eppendorf tube then the FuGENE 6 was added into the media. The tube was vortexed for 1 s before being incubated at RT for 5 min. 7.79 ng of both pFR_luc and pCDNA3.1_A2_F plasmid DNA were added to tube 1 and 7.79 ng of pCDNA3.1_GAL4-NF-κB plasmid to tube 2. The tubes were vortexed for 1 second and then incubated at room temperature for 15 min. Each transfection mixture was then added into the media of one of the T75 flasks of 293T cells. Cells were cultured for 24 h at 37° C., 5% CO2 in a humidified incubator.
Compounds were diluted (in a polypropylene round-bottomed 96 well plate) 1:3 in a twelve point dilution curve to give top [final] of either 25 μM, 3 μM, 1 μM or 500 nM. A control compound was included in every assay at a top concentration of 3 μM. Transfected cells were counted and diluted to 4×10^5 cells/mL in fresh media. 50 μL of transfection population 1 were added to all wells of the 96 well flat bottom white opaque assay plates. 100 μL diluted compound (2 rows per compound), control compound (one row) and controls (DMSO (0% inhibition, four wells), 3 μM positive control (100% inhibition, four wells) and media (transfection population 1 only, four wells) were added to the appropriate wells. 50 μL of the diluted (4×10^5 cells/mL) population 2 cells when then added to all wells, except the four wells of transfection population 1 only where an extra 50 μL of this cells population was added.
The plates were then incubated for 24 h at 37° C. and 5% CO2. After this time, 100 μL was removed from all wells and 60 μL of ONE-Glo™ (Promega) reagent, pre-equilibrated to room temperature, was added. Plates were then incubated for 3 min at room temperature before luminescence was read, using the ONE-Glo protocol, on the GloMax Explorer System (Promega) multimode reader. Analysis was carried out in Dotmatics software. All raw data were background subtracted (subtraction of mean 3 μM positive control value), before IC50 calculation.

[4] = Liver microsomal stability, dog; type: in vitro ADME; settings: pooled liver microsomes, pH 7.4, 3 μM compound, 0.5 mg/mL protein, read-out: Liver Microsomal Stability t1/2
Description: as §1

MDR1 = test: in vitro; type: in vitro ADME; settings: dog, MDCK-MDR1
Description: MDR1-MDCK Permeability: Experimental Procedure
MDR1-MDCK cells obtained from the NIH (Rockville, Md., USA) are used between passage numbers 6-30. Cells are seeded onto Millipore Multiscreen Transwell plates at 3.4×10^5 cells/cm^2. The cells are cultured in DMEM and media is changed on day 3. On day 4 the permeability study is performed. Cell culture and assay incubations are carried out at 37° C. in an atmosphere of 5% CO2 with a relative humidity of 95%. On the day of the assay, the monolayers are prepared by rinsing both basolateral and apical surfaces twice with Hanks Balanced Salt Solution (HBSS) at the desired pH warmed to 37° C. Cells are then incubated with HBSS at the desired pH in both apical and basolateral compartments for 40 min to stabilise physiological parameters.
The dosing solutions are prepared by diluting test compound with assay buffer to give a final test compound concentration of 10 μM (final DMSO concentration of 1% v/v). The fluorescent integrity marker lucifer yellow is also included in the dosing solution. Analytical standards are prepared from test compound DMSO dilutions and transferred to buffer, maintaining a 1% v DMSO concentration.
For assessment of A-B permeability, HBSS is removed from the apical compartment and replaced with test compound dosing solution. The apical compartment insert is then placed into a companion plate containing fresh buffer (containing 1% v/v DMSO). For assessment of B-A permeability, FIBSS is removed from the companion plate and replaced with test compound dosing solution. Fresh buffer (containing 1% v/v DMSO) is added to the apical compartment insert, which is then placed into the companion plate. At 60 min the apical compartment inserts and the companion plates are separated and apical and basolateral samples diluted for analysis. Test compound permeability is assessed in duplicate. Compounds of known permeability characteristics are run as controls on each assay plate.
Test and control compounds are quantified by LC-MS/MS cassette analysis using an 8-point calibration with appropriate dilution of the samples. The starting concentration (C0) is determined from the dosing solution and the experimental recovery calculated from C0 and both apical and basolateral compartment concentrations. The integrity of the monolayer throughout the experiment is checked by monitoring lucifer yellow permeation using fluorimetric analysis. Lucifer yellow permeation is high if monolayers have been damaged.

SMILES | half-life at 3 μM [1] [h] | half-life at 3 μM [2] [h] | IC50 [3] [nM] | half-life at 3 μM [4] [h] | Papp A→B at 60 min, 10 μM (MDR1) [×10⁻⁶ cm/s] | Papp B→A at 60 min, 10 μM (MDR1) [×10⁻⁶ cm/s]
CS(=O)(=O)CCCn1c(CN2C(=O)C(F)(F)c3ccccc32)nc2cc(Cl)ccc21 [Compound 5, 1-{[5-Chloro-1-(3-methanesulfonylpropyl)-1H-1,3-benzodiazol-2-yl]methyl}-3,3-difluoro-2,3-dihydro-1H-indol-2-one] | 0.355 | 54.7 | 3.9 | 1.05 | 0.21 | 14.5
CCS(=O)(=O)N1CCC(n2c(CN3C(=O)C(F)(F)c4ccccc43)nc3cc(Cl)ccc32)CC1 [Compound 9, 1-({5-Chloro-1-[1-(ethanesulfonyl)piperidin-4-yl]-1H-1,3-benzodiazol-2-yl}methyl)-3,3-difluoro-2,3-dihydro-1H-indol-2-one] | 0.377 | 1.5 | 2.2 | 1.97 | 10.4 | 18.3
O=C1N(Cc2nc3cc(Cl)ccc3n2C2CCOCC2)c2ccccc2C1(F)F [Compound 10, 1-{[5-Chloro-1-(oxan-4-yl)-1H-1,3-benzodiazol-2-yl]methyl}-3,3-difluoro-2,3-dihydro-1H-indol-2-one] | 0.303 | 1.12 | 17 | 0.207 | 19.8 | 34.4
CC(C)CCn1c(CN2C(=O)C(F)(F)c3ccccc32)nc2cc(CN)ccc21 [Compound 13, 1-{[5-(Aminomethyl)-1-(3-methylbutyl)-1H-1,3-benzodiazol-2-yl]methyl}-3,3-difluoro-2,3-dihydro-1H-indol-2-one] | 0.282 | 6.1 | 2.6 | 154 | 0.84 | 57.1
